Source: patent US5945440A, “Indolocarbazole imides and the use thereof” (priority 1992, dated 1999)

Legend:
[1] = molecular target: T1, MLC kinase (myosin light-chain kinase) (Gallus gallus, UniProt P11799); assay: inhibition of MLC kinase, in vitro enzyme test (32P phosphate incorporation); type: biochemical, chicken (stomach); settings: for IC50: 1 nM MLC kinase, 250 μM ATP, pH 7.2, 20 minutes at 30° C., read-out: inhibition of the protein kinases, MLC-kinase IC50; for ratio of IC50 C-kinase/IC50 MLC-kinase: selectivity factor calculated from the IC50 values; for MLC kinase inhibition, in words: potency and selectivity vs protein kinase C
T1 construct: MLC kinase was purified from chicken stomach; from tissue; host or cells: chicken stomach (gizzard smooth muscle)
T1 sequence (P11799 935-1906): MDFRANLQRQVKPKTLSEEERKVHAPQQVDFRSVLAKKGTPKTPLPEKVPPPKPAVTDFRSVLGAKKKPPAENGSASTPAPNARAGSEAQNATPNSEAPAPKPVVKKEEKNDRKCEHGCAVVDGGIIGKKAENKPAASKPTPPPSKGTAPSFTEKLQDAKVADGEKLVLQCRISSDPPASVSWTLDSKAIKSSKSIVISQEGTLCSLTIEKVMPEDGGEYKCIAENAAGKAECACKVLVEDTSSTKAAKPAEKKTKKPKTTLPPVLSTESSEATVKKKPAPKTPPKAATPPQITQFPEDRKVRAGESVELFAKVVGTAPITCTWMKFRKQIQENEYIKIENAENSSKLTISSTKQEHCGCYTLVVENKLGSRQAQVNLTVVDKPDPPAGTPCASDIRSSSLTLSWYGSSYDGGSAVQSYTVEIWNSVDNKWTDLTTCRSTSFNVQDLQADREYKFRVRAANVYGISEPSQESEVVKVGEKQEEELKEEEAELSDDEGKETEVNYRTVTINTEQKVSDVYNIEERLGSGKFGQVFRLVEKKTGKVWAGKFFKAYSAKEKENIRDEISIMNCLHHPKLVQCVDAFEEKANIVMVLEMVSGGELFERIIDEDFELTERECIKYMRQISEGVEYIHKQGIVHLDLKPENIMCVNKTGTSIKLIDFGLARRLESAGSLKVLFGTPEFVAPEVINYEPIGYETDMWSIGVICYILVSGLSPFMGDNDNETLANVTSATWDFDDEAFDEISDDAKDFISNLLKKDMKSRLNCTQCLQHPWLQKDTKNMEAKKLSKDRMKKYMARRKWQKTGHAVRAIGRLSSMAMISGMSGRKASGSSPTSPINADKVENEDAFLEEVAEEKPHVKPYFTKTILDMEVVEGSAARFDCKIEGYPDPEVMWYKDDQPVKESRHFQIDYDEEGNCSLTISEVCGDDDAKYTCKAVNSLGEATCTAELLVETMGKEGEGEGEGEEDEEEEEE
Method: Inhibition of the enzyme MLC kinase (EC 3.6.1.3; kinase of the light myosin chain; myosin light-chain kinase).
The inhibition of MLC kinase was measured in an in vitro enzyme test.
The reaction was initiated by the addition of 1 nM MLC kinase. After incubation for 20 minutes at 30° C., the reaction was stopped with TCA and the samples then filtered off. The phosphate incorporation took place by means of Cerenkov counting of the filter.

protein kinase C = assay: inhibition of protein kinase C, enzyme test; type: biochemical; settings: read-out: inhibition of the protein kinases, C-kinase IC50
Method: In order to ascertain whether it is a question of a selective inhibition of MLC kinase, the compounds were also investigated in other enzyme tests for protein kinase, including tests for protein kinase C. The results from the PKC test are also given in the following Table I. Furthermore, the Table contains selectivity factors which were calculated by the determination of the ratios of the IC50 values.

CN(C)CCCn1c2ccccc2c2c3c(c4c5ccccc5n(C)c4c21)C(=O)NC3=O [Example 1j, 12-(3-dimethylaminopropyl)-6,7,12,13-tetrahydro-13-methyl-5,7-dioxo-5H-indolo[2,3-a]pyrrolo[3,4-c]-carbazole]
IC50 [1]: 45 nM
ratio of IC50 C-kinase/IC50 MLC-kinase [1]: 11.1
IC50 (protein kinase C): 500 nM

COc1ccc2c(c1)c1c3c(c4c5ccccc5n(C)c4c1n2CCCN(C)C)C(=O)NC3=O [Example 1k, 13-(3-Dimethylaminopropyl)-6,7,12,13-tetrahydro-3-methoxy-12-methyl-5,1-dioxo-5H-indolo[2,3-a]pyrrolo-[3,4-c]carbazole]
IC50 [1]: 61 nM
ratio of IC50 C-kinase/IC50 MLC-kinase [1]: 7.2
IC50 (protein kinase C): 440 nM

Cn1c2ccccc2c2c3c(c4c5ccccc5n(CCCN=[N+]=[N-])c4c21)C(=O)NC3=O [Example 1l, 12-(3-azidopropyl)-6,7,12,13-tetrahydro-13-methyl-5,7-dioxo-5H-indolo[2,3-a]pyrrolo[3,4-c]carbazole]
IC50 [1]: 130 nM
ratio of IC50 C-kinase/IC50 MLC-kinase [1]: 0.4
IC50 (protein kinase C): 50 nM

COc1ccc2c(c1)c1c3c(c4c5cc(Cl)ccc5n(CCC#N)c4c1n2C)C(=O)NC3=O [Example 1n, 3-chloro-13-(2-cyanoethyl)-6,7,12,13-tetrahydro-9-methoxy-12-methyl-5,7-dioxo-5H-indolo[2,3-a]pyrrolo-[3,4-a]carbazole]
IC50 [1]: 32 nM
ratio of IC50 C-kinase/IC50 MLC-kinase [1]: 0.6
IC50 (protein kinase C): 20 nM

COc1cc2c3c4c(c5c6ccccc6n(C)c5c3n(CCC#N)c2cc1OC)C(=O)NC4=O [Example 1o, 13-(2-cyanoethyl)-6,7,12,13-tetrahydro-2,3-dimethoxy-12-methyl-5,7-dioxo-5H-1-indolo[2,3-a]pyrrolo-[3,4-c]carbazole]
IC50 [1]: 17 nM
ratio of IC50 C-kinase/IC50 MLC-kinase [1]: 0.4
IC50 (protein kinase C): 6.7 nM

COc1ccc2c(c1)c1c3c(c4c5ccccc5n(C)c4c1n2CCCC#N)C(=O)NC3=O [Example 1q, 13-(3-cyanopropyl)-6,7,12,13-tetrahydro-3-methoxy-12-methyl-5,7-dioxo-5H-indolo[2,3-a]pyrrolo[3,4-c]-carbazole]
IC50 [1]: 32 nM
ratio of IC50 C-kinase/IC50 MLC-kinase [1]: 0.15
IC50 (protein kinase C): 4.7 nM

COc1ccc2c(c1)c1c3c(c4c5cc(OC)ccc5n(CCCC#N)c4c1n2C)C(=O)NC3=O [Example 1r, 12-(3-cyanopropyl)-6,7,12,13-tetrahydro-3,9-dimethoxy-13-methyl-5,7-dioxo-5H-indolo[2,3-a]pyrrolo-[3,4-c]carbazole]
IC50 [1]: 29 nM
ratio of IC50 C-kinase/IC50 MLC-kinase [1]: 0.6
IC50 (protein kinase C): 17 nM

COc1ccc2c(c1)c1c3c(c4c5cc(OC)c(OC)cc5n(CCC#N)c4c1n2C)C(=O)NC3=O [Example 1s, 13-(2-cyanoethyl)-6,7,12,13-tetrahydro-2,3,9-trimethoxy-12-methyl-5,7-dioxo-5H-indolo[2,3-a]pyrrolo-[3,4-c]carbazole]
IC50 [1]: 33 nM
ratio of IC50 C-kinase/IC50 MLC-kinase [1]: 0.7
IC50 (protein kinase C): 24 nM

COc1ccc2c3c4c(c5c6ccccc6n(C)c5c3n(CCC#N)c2c1)C(=O)NC4=O [Example 1u, 13-(2-cyanoethyl)-6,7,12,13-tetrahydro-2-methoxy-12-methyl-5,7-dioxo-5H-indolo[2,3-a]pyrrolo[3,4-c]-carbazole]
IC50 [1]: 540 nM
ratio of IC50 C-kinase/IC50 MLC-kinase [1]: 8.7
IC50 (protein kinase C): 4700 nM

CN(C)CCn1c2ccccc2c2c3c(c4c5ccccc5n(C)c4c21)C(=O)NC3=O [Example 1x, 12-(2-dimethylaminoethyl)-6,7,12,13-tetrahydro-13-methyl-5,7-dioxo-5H-indolo[2,3-a]pyrrolo[3,4-c]carbazole]
IC50 [1]: 7.2 nM
ratio of IC50 C-kinase/IC50 MLC-kinase [1]: 7.2
IC50 (protein kinase C): 52 nM

COc1ccc2c(c1)c1c3c(c4c5ccccc5n(CCCN(C)C)c4c1n2C)C(=O)NC3=O [Example 1y, 12-(3-dimethylaminopropyl)-6,7,12,13-tetrahydro-3-methoxy-13-methyl-5,7-dioxo-5H-indolo[2,3-a]pyrrolo-[3,4-c]carbazole]
IC50 [1]: 7.6 nM
ratio of IC50 C-kinase/IC50 MLC-kinase [1]: 4.1
IC50 (protein kinase C): 31 nM

COc1cc2c3c4c(c5c6ccccc6n(C)c5c3n(CCCN(C)C)c2cc1OC)C(=O)NC4=O [Example 1z, 13-(3-dimethylaminopropyl)-6,7,12,13-tetrahydro-2,3-dimethoxy-12-methyl-5,7-dioxo-5H-indolo[2,3-a]-pyrrolo[3,4-c]carbazole]
IC50 [1]: 20 nM
ratio of IC50 C-kinase/IC50 MLC-kinase [1]: 1.3
IC50 (protein kinase C): 26 nM

Cn1c2ccccc2c2c3c(c4c5cc(O)ccc5n(CCC#N)c4c21)C(=O)NC3=O [Example 2, 13-(2-Cyanoethyl)-6,7,12,13-tetrahydro-3-hydroxy-12-methyl-5,7-dioxo-5H-indolo[2,3-a]pyrrolo[3,4-c]-carbazole]
IC50 [1]: 19 nM
ratio of IC50 C-kinase/IC50 MLC-kinase [1]: 1.3
IC50 (protein kinase C): 24 nM

Cn1c2ccc(O)cc2c2c3c(c4c5ccccc5n(CCC#N)c4c21)C(=O)NC3=O [Example 2a, 12-(2-cyanoethyl)-6,7,12,13-tetrahydro-3-hydroxy-13-methyl-5,7-dioxo-5H-indolo[2,3-a]pyrrolo[3,4-c]-carbazole]
IC50 [1]: 18 nM
ratio of IC50 C-kinase/IC50 MLC-kinase [1]: 1.7
IC50 (protein kinase C): 31 nM

Cn1c2ccccc2c2c3c(c4c5cc(O)c(O)cc5n(CCC#N)c4c21)C(=O)NC3=O [Example 2b, 13-(2-cyanoethyl)-6,7,12,13-tetrahydro-2,3-dihydroxy-12-methyl-5,7-dioxo-5H-indolo[2,3-a]pyrrolo[3,4-c]-carbazole]
IC50 [1]: 32 nM
ratio of IC50 C-kinase/IC50 MLC-kinase [1]: 7.2
IC50 (protein kinase C): 230 nM

O=C1NC(=O)c2c1c1c3cc(O)ccc3[nH]c1c1[nH]c3ccc(O)cc3c21 [Example 2e, 6,7,12,13-tetrahydro-3,9-dihydroxy-5,1-dioxo-5H-indolo[2,3-a]pyrrolo[3,4-c]carbazole]
IC50 [1]: 5.7 nM
ratio of IC50 C-kinase/IC50 MLC-kinase [1]: 1.3
IC50 (protein kinase C): 7 nM

Cn1c2ccc(O)cc2c2c3c(c4c5cc(O)ccc5n(CCC#N)c4c21)C(=O)NC3=O [Example 2f, 12-(2-cyanoethyl)-6,7,12,13-tetrahydro-3,9-dihydroxy-13-methyl-5,7-dioxo-5H-indolo[2,3-a]pyrrolo-[3,4-c]carbazole]
IC50 [1]: 10 nM
ratio of IC50 C-kinase/IC50 MLC-kinase [1]: 0.4
IC50 (protein kinase C): 4.2 nM

CN(C)CCCn1c2ccc(O)cc2c2c3c(c4c5ccccc5n(C)c4c21)C(=O)NC3=O [Example 2g, 13-(3-dimethylaminopropyl)-6,7,12,13-tetrahydro-3-hydroxy-12-methyl-5,7-dioxo-5H-indolo[2,3-a]pyrrolo-25 [3,4-c]carbazole]
IC50 [1]: 5 nM
ratio of IC50 C-kinase/IC50 MLC-kinase [1]: 8
IC50 (protein kinase C): 40 nM

Cn1c2ccccc2c2c3c(c4c5ccccc5n(CCC[N+](C)(C)C)c4c21)C(=O)NC3=O [Example 3, 12-(3-Dimethylaminopropyl)-6,7,12,13-tetrahydro-13-methyl-5,7-dioxo-5H-indolo[2,3-a]pyrrolo[3,4-c]-carbazole; methiodide]
IC50 [1]: 76 nM
ratio of IC50 C-kinase/IC50 MLC-kinase [1]: 2.5
IC50 (protein kinase C): 190 nM

Cn1c2ccccc2c2c3c(c4c5ccccc5n(CCCN)c4c21)C(=O)NC3=O [Example 4, 12-(3-Aminopropyl)-6,7,12,13-tetrahydro-13-methyl-5,7-dioxo-5H-indolo[2,3-a]pyrrolo[3,4-c]carbazole]
IC50 [1]: 1.2 nM
MLC kinase inhibition, in words [1]: potent and selective inhibitors of MLC kinase
ratio of IC50 C-kinase/IC50 MLC-kinase [1]: 33
IC50 (protein kinase C): 39 nM

COc1ccc2c(c1)c1c3c(c4c5ccccc5n(C)c4c1n2CCCN)C(=O)NC3=O [Example 4a, 13-(3-aminopropyl)-6,7,12,13-tetrahydro-3-methoxy-12-methyl-5,7-dioxo-5H-indolo[2,3-a]pyrrolo[3,4-c]-carbazole]
IC50 [1]: 4.9 nM
MLC kinase inhibition, in words [1]: potent and selective inhibitors of MLC kinase
ratio of IC50 C-kinase/IC50 MLC-kinase [1]: 74
IC50 (protein kinase C): 360 nM

COc1ccc2c(c1)c1c3c(c4c5cc(Cl)ccc5n(CCCN)c4c1n2C)C(=O)NC3=O [Example 4b, 13-(3-aminopropyl)-3-chloro-6,7,12,13-tetrahydro-9-methoxy-12-methyl-5,7-dioxo-5H-indolo[2,3-a]pyrrolo-[3,4-c]carbazole]
IC50 [1]: 1.5 nM
MLC kinase inhibition, in words [1]: potent and selective inhibitors of MLC kinase
ratio of IC50 C-kinase/IC50 MLC-kinase [1]: 23
IC50 (protein kinase C): 34 nM

CC(C)NCCCn1c2ccccc2c2c3c(c4c5ccccc5n(C)c4c21)C(=O)NC3=O [Example 4c, 13-(3-isopropylaminopropyl)-6,7,12,13-tetrahydro-13-methyl-5,7-dioxo-5H-indolo[2,3-a]pyrrolo[3,4-c]-carbazole]
IC50 [1]: 21 nM
ratio of IC50 C-kinase/IC50 MLC-kinase [1]: 2.5
IC50 (protein kinase C): 53 nM

COc1ccc2[nH]c3c(c4c(c5c6cc(OC)ccc6n(CCCN(C)C)c35)C(=O)NC4=O)c2c1 [Example 7, 12-(3-Dimethylaminopropyl)-6,7,12,13-tetrahydro-3,9-dimethoxy-5,7-dioxo-5H-indolo[2,3-a]pyrrolo[3,4-c]-carbazole]
IC50 [1]: 40 nM
ratio of IC50 C-kinase/IC50 MLC-kinase [1]: 9.5
IC50 (protein kinase C): 380 nM

CN(C)CCCn1c2ccccc2c2c3c(c4c5ccccc5[nH]c4c21)C(=O)NC3=O [Example 7a, 13-(3-dimethylaminopropyl)-6,7,12,13-tetrahydro-5,7-dioxo-5H-indolo[2,3-a]pyrrolo[3,4-c]carbazole]
IC50 [1]: 52 nM
ratio of IC50 C-kinase/IC50 MLC-kinase [1]: 10
IC50 (protein kinase C): 530 nM

COc1ccc2[nH]c3c(c4c(c5c6cc(OC)ccc6n(C)c35)C(=O)NC4=O)c2c1 [Example 7b, 6,7,12,13-tetrahydro-3,9-dimethoxy-12-methyl-5,7-dioxo-5H-indolo[2,3-a]pyrrolo[3,4-c]carbazole]
IC50 [1]: 8.7 nM
MLC kinase inhibition, in words [1]: potent and selective inhibitors of MLC kinase
ratio of IC50 C-kinase/IC50 MLC-kinase [1]: > 1149
IC50 (protein kinase C): > 10000 nM
